In patent US10048272B2, “High-affinity small molecule formylpeptide receptor ligands from screening of combinatorial mixture-based libraries” (STC.UNM, priority 2013, dated 2018):
“Also recorded” adds a separate entry of the source. One block for each compound: values may come before it.

Experiments:
FPR1 [1] = target: T1, FPR1 (Homo sapiens, UniProt P21462); assay: Duplex flow cytometry receptor binding assay (WPep-FITC fluorescent ligand competition), U937/FPR1 cells; set-up: expressed in transfected cells; host or cells: U937 cells (U937/FPR1); conditions: for Ki: WPep-FITC displacement, U937/FPR1 cells
T1 sequence (P21462 1-350): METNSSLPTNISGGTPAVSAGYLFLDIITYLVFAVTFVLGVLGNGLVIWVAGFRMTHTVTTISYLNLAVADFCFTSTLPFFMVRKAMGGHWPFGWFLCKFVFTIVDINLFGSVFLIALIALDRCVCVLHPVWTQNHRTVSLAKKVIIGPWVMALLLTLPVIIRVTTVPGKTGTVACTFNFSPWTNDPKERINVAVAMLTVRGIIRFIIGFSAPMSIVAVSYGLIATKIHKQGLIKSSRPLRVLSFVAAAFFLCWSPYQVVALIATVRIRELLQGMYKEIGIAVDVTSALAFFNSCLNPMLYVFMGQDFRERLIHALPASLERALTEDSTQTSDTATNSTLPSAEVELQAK
Protocol: Flow cytometry receptor binding assay. The assay was performed in a “duplex” format in which U937/FPR1 cells were tested together with RBL/FPR2 cells as previously described (Young, et al., 2009)(PubChem Summary AIDs 805 and 1202). The FPR1-expressing cells were stained with a red-fluorescent dye, FuraRed™ allowing them to be distinguished from the FPR2-expressing cells during flow cytometric analysis. A fluorescein label was conjugated to the lysine residue of the WPep peptide (WKYMVm) to produce a fluorescent ligand (WPep-FITC) that bound both FPR1 and FPR2. […] Assays were performed in polystyrene 384-well plates with small volume wells (Greiner #784101). Additions to wells were in sequence as follows: (1) test compounds and control reagents (5 ul/well); (2) the combined suspension of U937/FPR1 and RBL/FPR2 cells (5 ul/well) and; (3) (after 30 min, 4° C. incubation) WPep-FITC (5 ul/well). After an additional 45 min, 4° C. incubation, plates were immediately analyzed using flow cytometry. The assay response range was defined by replicate control wells containing unlabeled receptor-blocking peptide (positive control) or buffer (negative control). fMLFF was used as the FPR1-blocking peptide and unlabeled WPep as the FPR2-blocking peptide. Final concentration of WPep-FITC was 5 nM. The assay was homogeneous in that cells, compounds and fluorescent peptide were added in sequence and the wells subsequently analyzed without intervening wash steps. The HyperCyt™ high-throughput flow-cytometry platform (Kuckuck, et al., 2001; Ramirez, et al., 2003) was used to sequentially sample cells from wells of 384-well microplates (2 ul/sample) for presentation to a CyAn flow cytometer (Beckman-Coulter) at a rate of 40 samples/min. Fluorescence was excited at 488 nm and detected with 530/40 and 680/30 optical bandpass filters for WPep-FITC and FuraRed™, respectively. Test compound inhibition of fluorescent peptide binding was calculated as percent inhibition. WPep-FITC fluorescence intensity measurements of cells from control wells were also used to calculate Z′ factors (Zhang, et al., 1999), which ranged between 0.6 and 0.8 for each assay.
Dose response determinations. Fluorescent ligand competition dose response assays were performed essentially as described for single concentration assays except that test compounds were initially tested at a starting concentration of 10 mM in DMSO and serially diluted 1:3 to produce final concentration ranging from 67 μM to 0.1 nM. The resulting ligand competition curves were fitted by Prism software (GraphPad Software, Inc., San Diego, Calif.) using nonlinear least-squares regression in sigmoidal dose response model with variable slope, also known as the four parameter logistic equation. […]
(§1) FPR expression ranged from 100,000 to 200,000 receptors per cell in different assays as determined by comparison to standard curves generated with Fluorescein Reference Standard Microbeads (Bangs Laboratories, Fishers, Ind.). […] To account for effects of possible ligand depletion at the higher receptor concentrations, Ki values were calculated from IC50 estimates by the method of Munson and Rodbard (Munson and Rodbard, 1988): Ki=Kd×[y0/(y0+2]+IC50/{1+[p*×(y0+2)]/[2×Kd×(y0+1)]+y0} in which y0 is the initial bound-to-free concentration ratio for the fluorescent ligand, p* is the added concentration of fluorescent ligand and Kd is the dissociation constant for the fluorescent ligand.

FPR2 [2] = target: T2, FPR2 (Homo sapiens, UniProt P25090); assay: Duplex flow cytometry receptor binding assay (WPep-FITC fluorescent ligand competition), RBL/FPR2 cells; set-up: expressed in transfected cells; conditions: for FPR2 selectivity: FPR2 over FPR1
T2 sequence (P25090 1-351): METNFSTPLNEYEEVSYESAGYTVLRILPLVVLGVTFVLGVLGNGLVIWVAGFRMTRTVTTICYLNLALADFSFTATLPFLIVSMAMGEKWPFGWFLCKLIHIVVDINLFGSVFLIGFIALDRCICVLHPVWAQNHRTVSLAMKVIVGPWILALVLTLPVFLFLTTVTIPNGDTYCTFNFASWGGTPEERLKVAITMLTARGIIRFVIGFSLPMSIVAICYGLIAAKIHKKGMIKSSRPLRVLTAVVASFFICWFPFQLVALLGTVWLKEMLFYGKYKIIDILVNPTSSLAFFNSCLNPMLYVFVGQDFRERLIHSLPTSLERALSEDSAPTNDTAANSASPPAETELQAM
Protocol: Flow cytometry receptor binding assay. The assay was performed in a “duplex” format in which U937/FPR1 cells were tested together with RBL/FPR2 cells as previously described (Young, et al., 2009)(PubChem Summary AIDs 805 and 1202). The FPR1-expressing cells were stained with a red-fluorescent dye, FuraRed™ allowing them to be distinguished from the FPR2-expressing cells during flow cytometric analysis. A fluorescein label was conjugated to the lysine residue of the WPep peptide (WKYMVm) to produce a fluorescent ligand (WPep-FITC) that bound both FPR1 and FPR2. […] Assays were performed in polystyrene 384-well plates with small volume wells (Greiner #784101). Additions to wells were in sequence as follows: (1) test compounds and control reagents (5 ul/well); (2) the combined suspension of U937/FPR1 and RBL/FPR2 cells (5 ul/well) and; (3) (after 30 min, 4° C. incubation) WPep-FITC (5 ul/well). After an additional 45 min, 4° C. incubation, plates were immediately analyzed using flow cytometry. The assay response range was defined by replicate control wells containing unlabeled receptor-blocking peptide (positive control) or buffer (negative control). fMLFF was used as the FPR1-blocking peptide and unlabeled WPep as the FPR2-blocking peptide. Final concentration of WPep-FITC was 5 nM. The assay was homogeneous in that cells, compounds and fluorescent peptide were added in sequence and the wells subsequently analyzed without intervening wash steps. […] Fluorescence was excited at 488 nm and detected with 530/40 and 680/30 optical bandpass filters for WPep-FITC and FuraRed™, respectively. Test compound inhibition of fluorescent peptide binding was calculated as percent inhibition. WPep-FITC fluorescence intensity measurements of cells from control wells were also used to calculate Z′ factors (Zhang, et al., 1999), which ranged between 0.6 and 0.8 for each assay. […]
as §1

FPR2 [3] = target: T2, FPR2; assay: Intracellular calcium mobilization assay, FPR2 cells (agonist and antagonist determinations); format: cell-based; set-up: expressed in transfected cells; conditions: for Functional activity in FPR2-mediated intracellular Ca2+ response (agonist/antagonist): result in words
Protocol: (§2) Intracellular calcium mobilization assays. Intracellular calcium mobilization assays were performed as previously described with modifications (Edwards, et al., 2005). Briefly, cells were collected by centrifugation (200×g, 10 min, 24° C.) and suspended at 10^6/ml in 1 ml PBS (Ca^2+, Mg^2+ free). Cells were added with 210 nM Fluo4 (FPR2 cells) or with a combination of 210 nM Fluo4 and 210 nM FuraRed (FPR1 cells). After incubation for 30 min at 24° C. cells were washed with 1 ml PBS, suspended in 1 ml TCM (RPMI, 10% FBS) and stored in the dark at 24° C. until used in assays. For test compound agonist determinations, 50 μL from FPR1 and FPR2 cell suspensions were combined, analyzed 10 s in an Accuri C6 flow cytometer (BD Biosciences) to determine baseline Fluo4 fluorescence in the FL1 channel (530/20 nm), then added with 50 μL containing test compounds and analyzed an additional 110 s to evaluate changes in Fluo4 fluorescence intensity. During the analysis FPR1 cells were distinguished from FPR2 cells on the basis of FuraRed fluorescence intensity detected in the FL3 channel ([…]). The innate calcium response was quantified as the maximum % of cells that exceeded the baseline Fluo4 fluorescence intensity over the course of the analysis. These responses were normalized to the innate calcium responses observed in the presence of 11 nM control peptides: 4pep for FPR1 cells and Wpep for FPR2 cells as follows: Normalized Calcium Response (%)=100×innate response % to test compound/innate response % to control peptide.
(§3) For test compound antagonist determinations, 10 μL test compound was added to the combined FPR1/FPR2 cell mixture and incubated 5 min at 24° C. prior to assessing the innate calcium response to subsequent addition of fMLFF or Wpep peptide. In these determinations, fMLFF and Wpep were used at concentrations that produced 90% of the maximal intracellular calcium response (EC90), and responses were normalized with respect to the innate response to each control peptide observed in the absence of test compounds.
(§4) Intracellular Ca^2+ dose response curves were also fitted using nonlinear least-squares regression in a sigmoidal dose response model with variable slope. Curve fit statistics were used to determine the concentration of added test compound competitor that inhibited Ca^2+ responses by 50 percent (IC50) for antagonists or effected increases in Ca^2+ response by 50% (EC50) for agonists. Since responses were normalized relative to control stimuli the top and bottom of the fitted curves were fixed at 100 and 0.

FPR1 [4] = target: T1, FPR1; assay: Intracellular calcium mobilization assay, FPR1 cells (agonist and antagonist determinations); format: cell-based; set-up: expressed in transfected cells; host or cells: U937 cells (U937/FPR1); conditions: for Functional activity in FPR1-mediated intracellular Ca2+ response (agonist/antagonist): result in words
Protocol: as §2, §3, §4

FPR1 [5] = target: T1, FPR1; conditions: literature; cited from earlier work
FPR2 [6] = target: T2, FPR2; conditions: literature; cited from earlier work
[7] = second compound of the printed pair relative to the first (1754-26 to 1754-56)

Receptor selectivity, FPR1 versus FPR2, in ligand competition binding (in words) (FPR1 [1]): FPR2 selective
Ki (FPR1 [1]): > 10000 nM
Ki (FPR2 [2]; WPep-FITC displacement, RBL/FPR2 cells): 1 nM
FPR2 selectivity (FPR2 [2]; as printed in b133 ('nM Ki')): > 10,000 nM
FPR2 selectivity (FPR2 [2]; no unit): > 10,000
IC50 (FPR2 [3]; antagonist determination, Wpep at EC90, read-out: IC50, intracellular Ca2+ response, FPR2 antagonist): 81 nM
Functional activity in FPR2-mediated intracellular Ca2+ response (agonist/antagonist) (FPR2 [3]): antagonist
SMILES: CC(C)[C@H]1CNC(=O)C(=O)N1C[C@@H]1CCCN1C[C@@H](Cc1ccc2ccccc2c1)N1C[C@@H](Cc2ccc(O)cc2)N(CC2CCCCC2)C(=O)C1=O [1754-31]

EC50 (FPR1 [4]; agonist determination, read-out: EC50, intracellular Ca2+ response, FPR1 agonist): 131 nM
Response efficacy (fitted Top), Ca2+ response in FPR1 cells (FPR1 [4]; maximum response relative to control peptide 4pep (fMLFF)): 78%
Ki (FPR1 [1]): 4 nM
SMILES: CCCC[C@H](CN(C(=O)Nc1ccccc1)[C@@H](C)CNC(=O)Nc1ccccc1)N(CCCCc1ccccc1)C(=O)Nc1ccccc1 [1753-103]
Functional activity in FPR1-mediated intracellular Ca2+ response (agonist/antagonist) (FPR1 [4]): selective partial agonists; also recorded: agonist

SMILES: CCCCOc1ccc(C(=O)NN2C(=O)c3ccccc3NC2c2ccc(O)cc2)cc1 (centres unmarked) [Quin-C7]
Functional activity at FPR1 (in words) (FPR1 [5]): antagonist

Functional activity in FPR1-mediated intracellular Ca2+ response (agonist/antagonist) (FPR1 [4]): antagonist
Receptor selectivity, FPR1 versus FPR2, in ligand competition binding (in words) (FPR1 [1]): FPR1 selective
Increase of activity for FPR1 (potency difference, pKi) (FPR1 [1]; [7]): 1.36 log units
Decrease of activity for FPR2 (potency difference, pKi) (FPR2 [2]; [7]): 1.28 log units
EC50, FPR2-mediated Ca2+ response, agonist (in words) (FPR2 [3]; matched the Ki value of the ligand displacement assay): low micromolar
Response efficacy (fitted Top), Ca2+ response in FPR2 cells (FPR2 [3]; maximum response relative to control peptide Wpep (WKYMVm)): 98%
Functional activity in FPR2-mediated intracellular Ca2+ response (agonist/antagonist) (FPR2 [3]): agonist
SMILES: CCCC[C@H]1CNC(=O)C(=O)N1C[C@@H]1CCCN1C[C@@H](CCC)N1C[C@@H](Cc2ccc(O)cc2)N(CCc2ccc(-c3ccccc3)cc2)C(=O)C1=O [1754-56]

SMILES: CCCCOc1ccc(C(=O)NN2C(=O)c3ccccc3NC2c2ccc(OC)cc2)cc1 (centres unmarked) [Quin-C1]
Functional activity at FPR2 (in words) (FPR2 [6]): agonist
